Data reported in US9458427B2, “IFNγR2 compositions and methods of inhibiting neuronal cell death” (Case Western Reserve University, priority 2009, dated 2016).
Ends that are not written are not given here.

Columns and labels:
human Bim EL = assay: Apoptosis induced by Bim overexpression in HEK293T cells; type: cell-based; conditions: 24 h after transfection
Procedure: (§1) Cells were cultured overnight in DMEM supplemented with 10% FBS. The transfections were performed using […]® (Qiagen, Valencia, Calif.) in accordance with the manufacturer's instructions. Transfection efficiency was analyzed by the expression of the EGFP-tagged proteins.
(§2) Apoptosis was induced by transfecting the cells with pcDNA3-human Bax, or pcDNA3-human Bak, or pcDNA3-human Bim EL, or by treatment with etoposide (10 μM) or staurosporine (100 nM). To determine the induction of apoptosis by different apoptotic stresses, cells were stained with Hoechst 33258 dye, and the numbers of cells with apoptotic nuclei were counted using fluorescence microscopy. Three hundred cells were analyzed in triplicate samples. […] Caspase activity were measured by using a fluorogenic caspase 3 substrate II (Calbiochem), IFNγR2 constructs were cloned in pEGFP-C2 (IFNγR2wild type, IFNγR21-295 and IFNγR2296-337) vector.
(§3) For Bax, Bak or Bim EL overexpression, cells were transfected with either 1 μg pcDNA3-human Bax, 1 μg pcDNA3-human Bak, or 1 μg pcDNA3 human Bim EL, and 4 μg of pEGFP plasmid encoding IFNγR2, and the apoptosis or caspase activity was determined 24 h after the transfection.

Bax [1] = molecular target: T1, Bax (Homo sapiens, UniProt Q07812); assay: Staurosporine-induced Bax activation in HeLa cells (6A7 antibody immunostaining); type: cell-based; parameters: endogenous in cells; host or cells: HeLa; conditions: staurosporine 100 nM, 3 h
Procedure: HeLa cells were transiently transfected with pEGFP-C2-IFNγR2 (wild type 1-295, or 296-337) using […]® (Qiagen, Valencia, Calif.) in accordance with the manufacturer's instructions. Four micograms of the plasmid were used to transfect cells cultured in 6-cm diameter dishes. After 24 h of transfection, the cells were treated with staurosporine (100 nM) for 3 h. Then, the cells were washed with phosphate buffer pH 7.4 (PBS), fixed using paraformaldehyde (1%), permeabilized with Triton X-100 (0.02%), blocked with goat serum, and the activation of Bax was analyzed by immunocytochemistry using monoclonal Bax 6A7 antibody (BDPharmingen) and ALEXA FLUOR® 568-labeled anti-mouse IgG secondary antibody (Invitrogen).

Bax [2] = molecular target: T1, Bax; assay: Apoptosis induced by Bax overexpression in HEK293 cells (Hoechst nuclear staining); type: cell-based; parameters: expressed in transfected cells; host or cells: HEK293; conditions: HEK293 cells co-transfected with pcDNA3-h Bax and pEGFP-C2-IFNγR2 construct, 24 h after transfection
Procedure: as §1, §2, §3

[3] = test system: HT1080 (IFNγR2 null mutant and JAK2 null mutant) cells; assay: Etoposide-induced apoptosis in HT1080-derived IFNγR2 null and Jak2 null cells (Hoechst nuclear staining); type: cell-based, human; conditions: cells lacking IFNγR2 and Jak2, 10 μM etoposide for 24 h
Procedure: HT1080 (wild type, IFNγR2 null mutant and JAK2 null mutant) cells were cultured in Dulbecco's Modified Eagle's Medium (DMEM) supplemented with 10% fetal bovine serum (FBS). HeLa, Human Embryonic Kidney (HEK) 293 and HEK293T cells were purchased from ATCC, and cultured in DMEM supplemented with 10% FBS. LNCap and PC3 cells were purchased from ATCC and cultured in DMEM F12 medium supplemented with 10% FBS. RWPE1 and RWPE2 were purchased from ATCC and cultured in keratinocytes-SFM plus supplements medium (Gibco). Primary mammary epithelial (4A100) cultures were derived from organoids isolated from discarded mammary tissue acquired from patients undergoing reduction mammoplasty surgery. Anonymized specimens were acquired from patients who had given written consent, through the Tissue Procurement and Histology Core Facility of the Case Comprehensive Cancer Center (Case), under a Case CCC IRB approved protocol. Primary epithelial cultures were grown in M87A+X medium. Human HME1 cells (Clontech) were grown in medium 171 with mammary epithelial growth supplement (Cascade Biologics) and penicillin-streptomycin.42 Human breast cancer cell line MDA-MD468 was cultured in RPMI, 5% FBS, supplemented with L-glutamine, penicillin-streptomycin and fungizone (Gibco). […]
Cells were cultured overnight in DMEM supplemented with 10% FBS. […] Transfection efficiency was analyzed by the expression of the EGFP-tagged proteins.
as §2

[4] = test system: hippocampal slice cultures; assay: Cell permeability of FITC-tagged peptides in hippocampal slice cultures; type: cell-based, mouse; conditions: after 24-h treatment
Source text: In this study, in addition to utilizing Bax knockout (KO) mice, we utilized BIP to examine the role of Bax in oligomeric Aβ-induced neurotoxicity. BIP used in this study consists of five amino acids, VPTLK, a sequence that is known to inhibit Bax activation. […] Both peptides were tagged with fluorescein isothiocyanate (FITC) so that intracellular delivery can be tracked by FITC signal.

[5] = test system: organotypic hippocampal slice cultures; assay: Neuronal cell death in organotypic hippocampal slice cultures (PI uptake, Nissl staining); type: cell-based; conditions: for Suppression of oligomeric Aβ-induced neuronal loss (Nissl staining): peptide co-applied with oligomeric Aβ; for Prevention of oligomeric Aβ-induced PI uptake: peptide co-applied with oligomeric Aβ (500 nM), after 24-h treatment
Procedure: (§4) Organotypic hippocampal slice cultures were prepared as described previously. Briefly, hippocampal slice cultures were prepared using 7-10-day-old mouse pups. Slices were cut at 400 μm on a Mcllwain tissue chopper, transferred to Millicell membrane inserts ([…]; Millipore), and placed in 6-well culture plates. The culture medium consisted of basal Eagle's medium with Earle's balanced salt solution, 20% heat-inactivated horse serum, enriched with 5.6 mM glucose. The medium was changed every other day. The effect of oligomeric Ab (500 nM) was tested in the slices that had been maintained for 11-14 days in vitro. Aβ oligomer or reversed sequence of Aβ1-42 control peptide (Aβ42-1) was added to cultures in serum-free medium and, after the treatment, the hippocampal slices were rinsed twice in ice-cold phosphate-buffered saline (PBS), and then harvested by removing the Millicell membrane insert.
To determine neuronal cell death in the hippocampal slices, PI (5 μg/ml) was added to the slice culture medium. Images were acquired through an AxioCam camera on an Axiovert 200M microscope (Zeiss, Oberkochen, Germany). Fluorescent intensity was measured using Image J (NIH, Bethesda, Md., USA). Hematoxylin and eosin (H&E) and Niss1 staining was also performed for routine histochemical and morphological analyses.

[6] = test system: Bim, Bcl-2, Bax, caspase-3; assay: Western blot analysis of Bim, Bcl-2, Bax and cleaved caspase-3 in hippocampal slice cultures; type: cell-based, mouse
Procedure: as §4
The protein concentration was determined by BCA assay (Pierce, Rockford, Ill., USA). The extracted proteins were separated on 10 or 12% SDS-polyacrylamide gel and transferred onto polyvinylidene difluoride membranes. The blots were blocked with 10% non-fat milk in TBS-T for 1 h at room temperature, and then treated with primary antibodies diluted with 1% non-fat milk and incubated overnight at 4° C. The following antibodies were used for western blot analysis: anti-caspase-3 (1:1000; Santa Cruz Biotechnology, Santa Cruz, Calif., USA), anti-Bim (1:1000; Stressgen, Farmingdale, N.Y., USA), anti-Bcl-2 (1:1000; Stressgen) and 6A7 (conformational specific Bax antibody) (1:1000; BD Pharmingen, San Diego, Calif., USA).

Bax [7] = molecular target: T2, Bax (Mus musculus, UniProt Q07813); assay: Immunocytochemistry with 6A7 antibody (active Bax) in hippocampal slice cultures; type: cell-based
T2 construct: from tissue; host or cells: mouse hippocampal slice culture
Procedure: as §4
Cultured hippocampal slices were rinsed with icecold PBS once and fixed for 2 h with 4% paraformaldehayde in 0.1M PBS. After washing with PBS, sections were permeabilized overnight with PBS containing 0.2% Triton X-100. At the end of the permeabilization blocking solution, 10% normal goat serum in PBS was applied for 4 h at room temperature. After washing with PBS, primary antibody was added and incubated for 24-48 h at 4° C. […] Images were then analyzed with the Axiovision software (Zeiss).

[8] = test system: C57BL6/J mice hippocampus; assay: Intrahippocampal injection of oligomeric Aβ in mice; type: in vivo, mouse
Procedure: C57BL6/J mice (The Jackson Laboratories; 2-3-month-old) were anesthetized with pentobarbital and placed in a stereotaxic frame. Injection was made using a 10-μl microsyringe (Hamilton, Reno, Nev., USA). […] Control animals were prepared identically and injected with the same volume and concentration of Aβ42-1 in PBS. Injections were made at stereotaxic coordinates from bregma; antereoposterior (AP)=2.3 mm, mediolateral (ML)=2.5 mm and doroventral (DV)=−2.5 mm according to a previous report. This corresponds to a site in the dorsal hippocampus in the apical dendritic zones of the CA1 region near the hippocampal fissure. Mice were killed 10 or 20 days after injection, brains dissected out, fixed in 10% buffered-formalin and paraffin-embedded. For brain tissue sections, 6-μm-thick serial sections were cut, mounted onto slides and rehydrated according to standard protocols.
Cultured hippocampal slices were rinsed with icecold PBS once and fixed for 2 h with 4% paraformaldehayde in 0.1M PBS. After washing with PBS, sections were permeabilized overnight with PBS containing 0.2% Triton X-100. At the end of the permeabilization blocking solution, 10% normal goat serum in PBS was applied for 4 h at room temperature. After washing with PBS, primary antibody was added and incubated for 24-48 h at 4° C. After thorough washing of the sections in PBS, a secondary antibody labeled with either Alexa Fluor (Life Technologies, Grand Island, N.Y., USA) 488 or 568 (1:300) was added and incubated for 4 h at room temperature. All of the experiments contained at least one sample incubated without a primary antibody to exclude non-specific signal. Nuclei were visualized with DAPI. Images were acquired through an AxioCam camera on an Axiovert 200M microscope (Zeiss). Images were then analyzed with the Axiovision software (Zeiss).
Detection of 3′-OH termini of DNA strand breaks was performed using in situ cell death detection kit (Roche). Briefly, the tissue sections were treated with proteinase K (20 μg/ml in 10 mmol/l Tris-HCl, pH 7.4) for 30 min at 37° C. after rehydration. After rinsing with PBS, TUNEL reaction mixture containing terminal deoxynucleotidyl transferase and fluorescence-labeled nucleotide was applied for 1 h 37° C. The samples were then washed and mounted using Aquamount (Southern Biotech, Birmingham, Ala., USA).

T1 sequence (Q07812 whole entry): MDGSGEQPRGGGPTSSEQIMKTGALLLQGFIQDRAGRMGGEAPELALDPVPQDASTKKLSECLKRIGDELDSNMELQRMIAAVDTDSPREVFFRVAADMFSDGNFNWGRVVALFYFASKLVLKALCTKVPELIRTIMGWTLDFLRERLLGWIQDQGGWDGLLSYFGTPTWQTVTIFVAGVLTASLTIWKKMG
T2 sequence (Q07813 whole entry): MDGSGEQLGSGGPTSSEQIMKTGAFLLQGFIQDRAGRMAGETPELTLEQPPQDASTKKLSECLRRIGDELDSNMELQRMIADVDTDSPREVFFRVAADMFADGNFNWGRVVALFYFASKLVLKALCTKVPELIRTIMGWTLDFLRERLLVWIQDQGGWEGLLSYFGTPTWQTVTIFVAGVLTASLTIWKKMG

Molecule	Inhibition of STS-induced Bax activation (6A7 Ab-positive cells in GFP-positive cells) (Bax [1])	Inhibition of apoptosis induced by Bax overexpression (Bax [2])	Inhibition of etoposide-induced apoptosis [3]	Cell permeability (green fluorescence of FITC-tagged peptide in neuronal cells) [4]	Suppression of oligomeric Aβ-induced neuronal loss (Nissl staining) [5]	Prevention of oligomeric Aβ-induced PI uptake [5]	other results
IFNγR2296-337: mutant encoding amino acids 296-337 of IFNγR2, lacking the Jak2-binding domain; expressed as EGFP fusion (KDPTQPILEALDKDSSPKDDVWDSVSIISFPEKEQEDVLQTL; also: EGFP fusion; listed as Homo sapiens)	inhibited STS-induced Bax activation	able to inhibit apoptosis induced by Bax overexpression	able to inhibit etoposide-induced apoptosis				Inhibition of apoptosis induced by Bim overexpression (human Bim EL): able to inhibit apoptosis induced by Bim overexpression
KLVPT [control peptide]				equally penetrated neuronal cells	failed to prevent neuronal cell death	did not affect the level of PI uptake	
oligomeric Aβ: soluble oligomeric Aβ prepared from synthetic Aβ1-42 peptide (AnaSpec)							Level of Bax ([6]; oligomeric Aβ-treated brain slices): not affected; Expression of Bim ([6]; oligomeric Aβ-treated brain slices, time-dependent): increased the expression of Bim; Number of 6A7-positive cells (active form of Bax) (Bax [7]; slice cultures, 24 h after treatment): significantly increased; Level of Bim in hippocampus ([8]; 10 days after injection): dramatically increased; Number of neurons containing the active form of Bax (6A7 antibody) ([8]; 10 days after injection): dramatically increased; Neuronal cell death in hippocampus ([8]; WT mouse, 20 days after intrahippocampal injection): induced neuronal cell death; Number of TUNEL-positive neurons ([8]; intrahippocampal injection): significantly increased; Neuronal cell death induced by oligomeric Aβ in slice culture from bax−/− mice ([5]; bax−/− versus wild-type slices, 500 nM, 48 h): dramatically reduced; PI uptake / number of PI-positive cells (neuronal cell death) ([5]; wild-type slices, 500 nM, 48 h of treatment): significantly increased
VPTLK (also: FITC tag, site not given here) [BIP]				equally penetrated neuronal cells	significantly suppressed	significantly prevented PI uptake	Suppression of oligomeric Aβ-induced caspase-3 activation (immunoblot) ([6]; peptide co-applied with oligomeric Aβ): significantly suppressed; Suppression of oligomeric Aβ-induced conformational change of Bax (6A7) (Bax [7]; slices treated with oligomeric Aβ for 48 h): suppresses oligomeric Aβ-induced conformational change of Bax
IFNγR21-295: mutant encoding amino acids 1-295 of IFNγR2, retaining Jak2-binding domain but not the C-terminal 41 amino acids (protein, left off: large carriers) APPDPLSQLPAPQHPKIRLYNAEQVLSWEPVALSNSTRPVVYQVQFKYTDSKWFTADIMSIGVNCTQITATECDFTAASPSAGFPMDFNVTLRLRAELGALHSAWVTMPWFQHYRNVTVGPPENIEVTPGEGSLIIRFSSPFDIADTSTAFFCYYVHYWEKGGIQQVKGPFRSNSISLDNLKPSRVYCLQVQAQLLWNKSNIFRVGHLSNISCYETMADASTELQQVILISVGTFSLLSVLAGACFFLVLKYRGLIKYWFHTPPSIPLQIEEYL	did not inhibit Bax activation	could not protect cells from Bax	could not				
